# Results from patent publication US4826840A, “Cerebral protecting agent” (Taiyo Pharmaceutical Industry Co., Ltd., priority 1987, dated 1989).
# Structures can show the parent of a compound that is named as a salt.
# What was measured:
# [1] = test system: common carotid artery blood flow; experiment: Effect on common carotid artery blood flow; assay type: in vivo, Male adult dogs; settings: for Increase in CCBF (Δ%): n = 3; for Increase of CCBF (in words): i.v., anesthetized dogs
# Protocol: (§1) Male adult dogs (weight: […]) were used for the experiment after they were preliminary bred in the metal cage for 1 week in a breeding room in which the temperature was controlled at 22±2° C. and the humidity was at 55±10%. They were given pelleted diet (CS, product of Oriental Yeast Co.) and water ad lib. Prior to submitting the animals to the experiment, they were fasted for 21-23 hours.
# (§2) The dogs were anesthetized with sodium pentobarbital and probes for measuring the blood flows were fitted on the right vertebral artery and right common carotid artery. After measuring the control blood flows, the test compounds dissolved in physiological saline were intravenously administered. The vertebral artery blood flow (VBF) and the common carotid artery flow (CCBF) were measured to determine the increments of the blood flow resulting from administration of the test compounds.
# [2] = test system: vertebral artery blood flow; experiment: Effect on vertebral artery blood flow; assay type: in vivo, Male adult dogs; settings: for Increase in VBF (Δ%): n = 3; for Increase of VBF (in words): i.v., anesthetized dogs
# Protocol: as §1, §2
# [3] = Measurement of LD50; settings: mouse, in vivo
# Description: ddY male mice having been preliminary bred in the same manner as Example 7 were orally given the test compounds to determine LD50.
# [4] = Effect on brain ischemia model by MgCl2; assay type: in vivo, ddY male mice; settings: for Survival Time: 2 h before saturated MgCl2 i.v.; for Prolongation of survival time (in words): doses of about 40 mg/kg, oral
# Protocol: ddY male mice (age: 7 weeks) having been preliminary bred in the same manner as in Example 7 were fasted and orally administered with the test compounds dissolved in 0.3%methylcellulose solution. Two (2) hours later, 0.05 ml of saturated solution of MgCl2 was intravenously administered rapidly through the caudal vein. The […] was determined as the period of time until final gasping.
# [5] = Protective effect against KCN death; assay type: in vivo, ddY male mice
# [6] = Effect on bicuculline convulsion; assay type: in vivo, Wister male rats; settings: 1 h before bicuculline 1.75 mg/kg i.v.; for Inhibition of the tonic extension (in words): oral
# Protocol: Each test compound was dissolved in 0.5% methylcellulose solution and orally administered to each mouse, and 1 hour later 1.75 mg/kg of bicuculline was given intravenously through caudal vein over the period of 15 seconds. Then, the tonic hindpaw extension was observed.
# [7] = 40 mg/kg p.o., 2 h before KCN 2.1 mg/kg i.v.
structure (smiles),measurement,setting,value
"CCCCC1=Cc2cc3c(cc2C1N1CCN(C)CC1)OCO3 (centres unmarked) [Compound 1c, Dihydrochloride of 1-(4-methylpiperazinyl)-2-n-butyl-5,6-methylenedioxyindene]",Increase in CCBF (Δ%),"[1]; 0.3 mg/kg i.v., 1 min",2.4 ± 1.3 Δ%
same,Increase in CCBF (Δ%),"[1]; 0.3 mg/kg i.v., 2 min",4.5 ± 0.7 Δ%
same,Increase in CCBF (Δ%),"[1]; 0.3 mg/kg i.v., 3 min",4.5 ± 0.7 Δ%
same,Increase in CCBF (Δ%),"[1]; 0.3 mg/kg i.v., 4 min",4.5 ± 0.7 Δ%
same,Increase in CCBF (Δ%),"[1]; 0.3 mg/kg i.v., 5 min",0.8 ± 2.7 Δ%
same,Increase in CCBF (Δ%),"[1]; 0.3 mg/kg i.v., 10 min",0 ± 0 Δ%
same,Increase in CCBF (Δ%),"[1]; 0.3 mg/kg i.v., 15 min",2.2 ± 2.8 Δ%
same,Increase in CCBF (Δ%),"[1]; 1 mg/kg i.v., 1 min",5.2 ± 0.8 Δ%
same,Increase in CCBF (Δ%),"[1]; 1 mg/kg i.v., 2 min",11.9 ± 4.7 Δ%
same,Increase in CCBF (Δ%),"[1]; 1 mg/kg i.v., 3 min",13.9 ± 7.4 Δ%
same,Increase in CCBF (Δ%),"[1]; 1 mg/kg i.v., 4 min",12.8 ± 7.2 Δ%
same,Increase in CCBF (Δ%),"[1]; 1 mg/kg i.v., 5 min",6.4 ± 3.6 Δ%
same,Increase in CCBF (Δ%),"[1]; 1 mg/kg i.v., 10 min",1.1 ± 1.1 Δ%
same,Increase in CCBF (Δ%),"[1]; 1 mg/kg i.v., 15 min",3.6 ± 2.0 Δ%
same,Increase in CCBF (Δ%),"[1]; 3 mg/kg i.v., 1 min",9.5 ± 2.7 Δ%
same,Increase in CCBF (Δ%),"[1]; 3 mg/kg i.v., 2 min",19.0 ± 16.1 Δ%
same,Increase in CCBF (Δ%),"[1]; 3 mg/kg i.v., 3 min",14.1 ± 18.0 Δ%
same,Increase in CCBF (Δ%),"[1]; 3 mg/kg i.v., 4 min",12.7 ± 14.2 Δ%
same,Increase in CCBF (Δ%),"[1]; 3 mg/kg i.v., 5 min",9.3 ± 10.8 Δ%
same,Increase in CCBF (Δ%),"[1]; 3 mg/kg i.v., 10 min",6.1 ± 5.8 Δ%
same,Increase in CCBF (Δ%),"[1]; 3 mg/kg i.v., 15 min",4.9 ± 5.0 Δ%
same,Increase of CCBF (in words),[1],increased VBF and CCBF dose-dependently
same,Increase in VBF (Δ%),"[2]; 0.3 mg/kg i.v., 1 min",6.3 ± 6.3 Δ%
same,Increase in VBF (Δ%),"[2]; 0.3 mg/kg i.v., 2 min",19.7 ± 9.0 Δ%
same,Increase in VBF (Δ%),"[2]; 0.3 mg/kg i.v., 3 min",32.2 ± 15.8 Δ%
same,Increase in VBF (Δ%),"[2]; 0.3 mg/kg i.v., 4 min",26.5 ± 13.2 Δ%
same,Increase in VBF (Δ%),"[2]; 0.3 mg/kg i.v., 5 min",16.1 ± 7.9 Δ%
same,Increase in VBF (Δ%),"[2]; 0.3 mg/kg i.v., 10 min",12.5 ± 12.5 Δ%
same,Increase in VBF (Δ%),"[2]; 0.3 mg/kg i.v., 15 min",15.5 ± 11.3 Δ%
same,Increase in VBF (Δ%),"[2]; 1 mg/kg i.v., 1 min",9.6 ± 5.1 Δ%
same,Increase in VBF (Δ%),"[2]; 1 mg/kg i.v., 2 min",59.6 ± 33.3 Δ%
same,Increase in VBF (Δ%),"[2]; 1 mg/kg i.v., 3 min",74.5 ± 36.3 Δ%
same,Increase in VBF (Δ%),"[2]; 1 mg/kg i.v., 4 min",68.9 ± 39.3 Δ%
same,Increase in VBF (Δ%),"[2]; 1 mg/kg i.v., 5 min",39.2 ± 27.5 Δ%
same,Increase in VBF (Δ%),"[2]; 1 mg/kg i.v., 10 min",14.0 ± 8.5 Δ%
same,Increase in VBF (Δ%),"[2]; 1 mg/kg i.v., 15 min",11.7 ± 9.0 Δ%
same,Increase in VBF (Δ%),"[2]; 3 mg/kg i.v., 1 min",44.2 ± 16.3 Δ%
same,Increase in VBF (Δ%),"[2]; 3 mg/kg i.v., 2 min",154.7 ± 56.5 Δ%
same,Increase in VBF (Δ%),"[2]; 3 mg/kg i.v., 3 min",173.7 ± 61.6 Δ%
same,Increase in VBF (Δ%),"[2]; 3 mg/kg i.v., 4 min",143.6 ± 54.0 Δ%
same,Increase in VBF (Δ%),"[2]; 3 mg/kg i.v., 5 min",111.4 ± 49.6 Δ%
same,Increase in VBF (Δ%),"[2]; 3 mg/kg i.v., 10 min",65.8 ± 30.5 Δ%
same,Increase in VBF (Δ%),"[2]; 3 mg/kg i.v., 15 min",37.5 ± 18.4 Δ%
same,Increase of VBF (in words),[2],increased VBF and CCBF dose-dependently
same,LD50,[3]; po,368 mg/kg
same,Survival Time,[4]; 40 mg/kg oral,28.8 ± 0.6 s
same,Survival Time,[4]; 80 mg/kg oral,32.3 ± 0.6 s
same,Prolongation of survival time (in words),[4],significant prolongation of survival time dose-dependency
same,Rate of Survival (%),"[5]; mouse, in vivo",78%
same,Survived Animals/Tested Animals,"[5]; mouse, in vivo",7/9
same,Animals Convulsed/Animals Tested,[6]; 1 mg/kg oral,8/10
same,Rate of Convulsion Inhibition (%),[6]; 1 mg/kg oral,20%
same,Animals Convulsed/Animals Tested,[6]; 5 mg/kg oral,5/10
same,Rate of Convulsion Inhibition (%),[6]; 5 mg/kg oral,50%
same,Animals Convulsed/Animals Tested,[6]; 10 mg/kg oral,1/10
same,Rate of Convulsion Inhibition (%),[6]; 10 mg/kg oral,90%
same,Animals Convulsed/Animals Tested,[6]; 15 mg/kg oral,0/10
same,Rate of Convulsion Inhibition (%),[6]; 15 mg/kg oral,100%
same,Inhibition of the tonic extension (in words),[6],inhibited the tonic extension dose-dependency
CCCCC1=Cc2cc3c(cc2C1N1CCN(CCC)CC1)OCO3 (centres unmarked) [Compound 2b],Increase in CCBF (Δ%),"[1]; 1 mg/kg i.v., 1 min",1.5 ± 1.5 Δ%
same,Increase in CCBF (Δ%),"[1]; 1 mg/kg i.v., 2 min",5.2 ± 1.6 Δ%
same,Increase in CCBF (Δ%),"[1]; 1 mg/kg i.v., 3 min",2.4 ± 1.2 Δ%
same,Increase in CCBF (Δ%),"[1]; 1 mg/kg i.v., 4 min",1.4 ± 1.4 Δ%
same,Increase in CCBF (Δ%),"[1]; 1 mg/kg i.v., 5 min",-1.0 ± 1.0 Δ%
same,Increase in CCBF (Δ%),"[1]; 3 mg/kg i.v., 1 min",7.1 ± 5.6 Δ%
same,Increase in CCBF (Δ%),"[1]; 3 mg/kg i.v., 2 min",9.8 ± 7.4 Δ%
same,Increase in CCBF (Δ%),"[1]; 3 mg/kg i.v., 3 min",4.6 ± 4.8 Δ%
same,Increase in CCBF (Δ%),"[1]; 3 mg/kg i.v., 4 min",-1.8 ± 4.3 Δ%
same,Increase in CCBF (Δ%),"[1]; 3 mg/kg i.v., 5 min",-5.9 ± 2.1 Δ%
same,Increase of CCBF (in words),[1],increased VBF and CCBF dose-dependently
same,Increase in VBF (Δ%),"[2]; 1 mg/kg i.v., 1 min",7.2 ± 4.9 Δ%
same,Increase in VBF (Δ%),"[2]; 1 mg/kg i.v., 2 min",18.6 ± 7.4 Δ%
same,Increase in VBF (Δ%),"[2]; 1 mg/kg i.v., 3 min",24.6 ± 8.3 Δ%
same,Increase in VBF (Δ%),"[2]; 1 mg/kg i.v., 4 min",17.6 ± 8.8 Δ%
same,Increase in VBF (Δ%),"[2]; 1 mg/kg i.v., 5 min",3.7 ± 3.7 Δ%
same,Increase in VBF (Δ%),"[2]; 3 mg/kg i.v., 1 min",43.1 ± 28.5 Δ%
same,Increase in VBF (Δ%),"[2]; 3 mg/kg i.v., 2 min",74.3 ± 23.3 Δ%
same,Increase in VBF (Δ%),"[2]; 3 mg/kg i.v., 3 min",78.2 ± 28.2 Δ%
same,Increase in VBF (Δ%),"[2]; 3 mg/kg i.v., 4 min",40.5 ± 21.1 Δ%
same,Increase in VBF (Δ%),"[2]; 3 mg/kg i.v., 5 min",18.5 ± 12.7 Δ%
same,Increase of VBF (in words),[2],increased VBF and CCBF dose-dependently
same,LD50,[3]; po,450 mg/kg
same,Survival Time,[4]; 40 mg/kg oral,28.3 ± 1.5 s
same,Survival Time,[4]; 80 mg/kg oral,32.4 ± 1.5 s
same,Prolongation of survival time (in words),[4],significant prolongation of survival time dose-dependency
same,Rate of Survival (%),"[5]; mouse, in vivo",50%
same,Survived Animals/Tested Animals,"[5]; mouse, in vivo",5/10
same,Animals Convulsed/Animals Tested,[6]; 5 mg/kg oral,6/10
same,Rate of Convulsion Inhibition (%),[6]; 5 mg/kg oral,40%
same,Animals Convulsed/Animals Tested,[6]; 10 mg/kg oral,5/10
same,Rate of Convulsion Inhibition (%),[6]; 10 mg/kg oral,50%
same,Animals Convulsed/Animals Tested,[6]; 15 mg/kg oral,2/10
same,Rate of Convulsion Inhibition (%),[6]; 15 mg/kg oral,80%
same,Animals Convulsed/Animals Tested,[6]; 20 mg/kg oral,0/10
same,Rate of Convulsion Inhibition (%),[6]; 20 mg/kg oral,100%
same,Inhibition of the tonic extension (in words),[6],inhibited the tonic extension dose-dependency
CCCCC1=Cc2cc3c(cc2C1N1CCN(CCCC)CC1)OCO3 (centres unmarked) [Compound 3b],LD50,"[3]; oral, ddY male mice",430 mg/kg
same,Rate of Survival (%),[5]; [7],33%
same,Survived Animals/Tested Animals,[5]; [7],3/9
CCCCC1=Cc2cc3c(cc2C1N1CCCN(CCC)CC1)OCO3 (centres unmarked) [Compound 4b],LD50,"[3]; oral, ddY male mice",373 mg/kg
same,Rate of Survival (%),[5]; [7],56%
same,Survived Animals/Tested Animals,[5]; [7],5/9
CCCCC1=C(C)c2cc3c(cc2C1N1CCN(CCC)CC1)OCO3 (centres unmarked) [Compound 5b],LD50,"[3]; oral, ddY male mice",510 mg/kg
same,Rate of Survival (%),[5]; [7],56%
same,Survived Animals/Tested Animals,[5]; [7],5/9
CCCCC1=C(c2ccccc2)c2cc3c(cc2C1N1CCN(CCC)CC1)OCO3 (centres unmarked) [Compound 6b],LD50,"[3]; oral, ddY male mice",608 mg/kg
same,Rate of Survival (%),[5]; [7],30%
same,Survived Animals/Tested Animals,[5]; [7],3/10
"COC(=O)C1=C(C)NC(C)=C(C(=O)OCCN(C)Cc2ccccc2)C1c1cccc([N+](=O)[O-])c1 (centres unmarked) [nicardipine, reference compound]",Survival Time,[4]; 80 mg/kg oral,24.3 ± 1.0 s
"CCOC(=O)C1=C[C@]2(CC)CCCN3CCc4c(n1c1ccccc41)[C@@H]32 [vinpocetine, reference compound]",Survival Time,[4]; 80 mg/kg oral,22.5 ± 1.1 s
